Tested on: mRORγt
Experiment: shRNA inhibition of mRORγt expression in AKR1 cells, monitored by Western blot
Assay type: cell-based, mouse
Conditions: AKR1 cells infected with retrovirus encoding the shRNA vs empty retroviral vector, HMG-1 loading control
From the text: FIG. 42. Delivery of siRNA Hairpins by a Retroviral vector. […] After the AKR1 cells were infected with these vectors, mRORγt expression was monitored by Western blot. HMG-1 was used as an internal loading control. […] The effect lasted for at least two to three weeks, as shown in the lower panel.
Two shRNA molecules were generated using the DNA sequence of SEQ ID NO: 3 (mouse RORγt). In particular, the nucleotides from position 358-378 of SEQ ID NO: 3 and from position 1269-1289 of SEQ ID NO: 3 (mouse RORγt) were used to generate shRNA molecules. These sequences are as follows:
When tested for the ability to inhibit expression of RORγt, as well as expression of a target molecule for RORgt, significant inhibition of expression was observed. (See FIGS. 42 and 43).

Sequence | inhibition of RORγt expression
GGAACTGGCTTTCCATCATCA (expressed or natural sequence) [SEQ ID NO: 10] | shown to inhibit the expression of RORγt
GGAGCAGACACACTTACATAC (chemistry not given here) [SEQ ID NO: 9] | shown to inhibit the expression of RORγt

Reference: patent publication US20150218563A1, “COMPOSITIONS AND METHODS FOR MODULATION OF RORGAMMAT FUNCTIONS” (priority 2004, published 2015)
